Laboratory results from patent US9163060B2, “Tubulin inhibitors” (R&D BIOPHARMACEUTICALS GMBH, priority 2009, dated 2015).

Each compound was assayed on HT-29 (assay: fluorometric resazurin-based anti-proliferative assay, HT-29). Details: Homo sapiens, HT-29 cancer cell line.
Protocol: Determination of the IC-50 Concentration Against Various Cancer Cell Lines
The anti-proliferative activity of some representative example compounds of the present invention was determined in-vitro using a fluorometric resazurin-based assay. Cancer cell proliferation and viability was quantified upon reduction of non-fluorescent resazurin into the fluorescent dye resorufin by metabolically active cells as described in Strotmann, U. J., et al., The dehydrogenase assay with resazurin: Practical performance as a monitoring system and pH-dependent toxicity of phenolic compounds. Ecotox. Environ. Safety 25, 79-89, (1993).

Q: `CCCN(C(=O)C(NC(=O)C1CCCCN1C)[C@@H](C)CC)[C@H](C[C@@H](OC(C)=O)c1nc(C(=O)N[C@@H](Cc2ccccc2)C(=O)O)cs1)C(C)C` (stereo partly drawn) was tested. Which IC50 did it give?
A: The IC50 was 4.5 ± 0.5 nM.

Q: How did the IC50 turn out when `CC[C@H](C)C(NC(=O)C1CCCCN1C)C(=O)N(C)[C@H](C[C@@H](OC(C)=O)c1nc(C(=O)N[C@@H](Cc2ccccc2)C(=O)O)cs1)C(C)C` (stereo partly drawn) was run?
A: Its IC50 is 3.2 ± 0.4 nM.

Q: With `CCCN(C(=O)C(NC(=O)C1CCCCN1C)[C@@H](C)CC)[C@H](C[C@@H](OCOC)c1nc(C(=O)N[C@@H](Cc2ccccc2)C(=O)O)cs1)C(C)C` (stereo partly drawn) as the compound, how does the IC50 read?
A: Its IC50 is 51.1 ± 2.6 nM.

Q: With `CCCN(C(=O)C(NC(=O)C1CCCCN1C)[C@@H](C)CC)[C@H](C[C@@H](OC(C)=O)c1nc(C(=O)N[C@@H](Cc2ccc(F)cc2)C(=O)O)cs1)C(C)C` (stereo partly drawn) as the compound, how does the IC50 read?
A: The IC50 was 1 ± 0.2 nM.

Q: For `CCCO[C@H](C[C@H](C(C)C)N(CCC)C(=O)C(NC(=O)C1CCCCN1C)[C@@H](C)CC)c1nc(C(=O)N[C@@H](Cc2ccc(O)cc2)C(=O)O)cs1` (stereo partly drawn), which IC50 is on record?
A: The IC50 was 3.1 ± 0.6 nM.

Q: Which IC50 does the source give for `CCCN(C(=O)C(NC(=O)C1CCCCN1C)[C@@H](C)CC)[C@H](C[C@@H](OC(C)=O)c1nc(C(=O)N[C@@H](Cc2ccccc2)C(=O)NCCO)cs1)C(C)C` (stereo partly drawn) here?
A: The IC50 was 3.9 ± 0.7 nM.
